One test addresses T1, MycN (Homo sapiens, UniProt P04198).
T1 construct: endogenous in cells; host or cells: SK-N-BE(2)
T1 sequence (P04198 1-464): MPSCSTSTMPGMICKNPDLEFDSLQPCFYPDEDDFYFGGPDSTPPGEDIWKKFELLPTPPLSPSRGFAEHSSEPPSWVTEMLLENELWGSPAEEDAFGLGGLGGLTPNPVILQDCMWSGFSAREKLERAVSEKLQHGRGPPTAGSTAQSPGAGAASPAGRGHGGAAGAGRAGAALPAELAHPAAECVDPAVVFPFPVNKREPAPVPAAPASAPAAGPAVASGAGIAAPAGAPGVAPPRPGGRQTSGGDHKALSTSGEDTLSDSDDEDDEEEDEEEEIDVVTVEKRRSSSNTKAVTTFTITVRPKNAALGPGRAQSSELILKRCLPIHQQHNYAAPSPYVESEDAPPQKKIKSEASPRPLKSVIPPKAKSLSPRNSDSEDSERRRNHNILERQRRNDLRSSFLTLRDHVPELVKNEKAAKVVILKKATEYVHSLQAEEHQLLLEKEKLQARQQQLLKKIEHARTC
As to the kind of experiment: Degradation of MycN protein in SK-N-BE(2) cells, JESS/Western blot of lysates. Type of test: cell-based. The note with it: SKNBE2 cells, 24 h; for Dmax at 0.5 µM / Dmax at 1 µM / Dmax at 3 µM / Dmax at 6 µM: SKNBE2, 24 h; for Dmax at 0.5 µM: read-out: % Degradation of MycN (SKNBE2) 24 h, 0.5 μM; for Dmax at 1 µM: read-out: % Degradation of MycN (SKNBE2) 24 h, 1 μM; for Dmax at 3 µM: read-out: % Degradation of MycN (SKNBE2) 24 h, 3 μM; for Dmax at 6 µM: read-out: % Degradation of MycN (SKNBE2) 24 h, 6 μM. On the procedure:
(§1) For L363 cells (suspension), 1E6 cells were plated into each well of a 6 well plate. For SK-N-BE(2) cells (adherent), 5E5 cells were plated into each well of a 6 well dish. Cells were cultured for 24 hrs then treated with exemplary compounds at 0.1, 0.5, 1.0, 3.0 and 6.0 mM final assay concentrations plus DMSO control. All compounds were diluted to 10 mM in DMSO. Cells were treated with the compound for 24 hrs, then for both cell types, media containing cells were removed from wells into a 15 ml centrifuge tube, and remaining adherent SK-N-BE(2) cells were also scraped from the wells into the appropriate tubes. Tubes were centrifuged, cells were washed with PBS then re-centrifuged to pellet cells. A RIPA buffer cocktail was added to the cells on ice for 5 mins. Cell lysates were clarified by centrifugation and stored at −80 degrees until required. BCA assay was performed on each lysate to determine the protein concentration.
(§2) Once an appropriate lysate concentration and antibody concentration was determined, samples were screened in the JESS technology (Protein Simple, San Jose, CA—https://www.proteinsimple.com/jess.html).
(§3) Target protein antibodies (n-myc and c-myc) were detected in the chemi-luminescence channel and loading controls (tubulin and GAPDH) were detected using a Near Infra Red (NIR) labeled secondary antibody.
For SK-N-EB2 adherent cells, 5E5 cells in 1.9 mls media were plated into 6 well dishes and incubated for 24 hrs. Exemplary compounds were added (100 ul, 1 in 20 dilution in media) to each well (final assay concentration 6, 3, 1 and […]) together with DMSO control wells and incubated for 24 hrs. Cells were scrapped off the plate, centrifuged, washed with PBS, centrifuged, then a RIPA buffer cocktail added to the cells (100 ul), centrifuged and stored at −80 for later analysis. For L363 suspension cells, 1E6 cells were plated into 24 well dishes (950 ul media) and incubated for 24 hrs. Exemplary compounds were added (50 ul, 1 in 20 dilution in media) to each well (final assay concentration 6, 3, 1 and […]) together with DMSO control wells and incubated for 24 hrs. Cells were aspirated into tubes, centrifuged, washed with PBS, centrifuged, then a RIPA buffer cocktail added to the cells (100 ul), centrifuged and stored at −80 for later analysis.
(§4) For Western blot, a BCA (total protein) assay was run on all samples, these were then run in batches of 5 compounds plus control (DMSO) on each Western blot run—n-myc and c-myc were run in separate experiments in the chemiluminescence channel. Both tubulin and GAPDH were run as loading controls in all lanes in the near infra red channel.

The next test addresses T2, MycC (Homo sapiens, UniProt P01106).
T2 construct: endogenous in cells; host or cells: L363
The test can be described thus: Degradation of MycC protein in L363 cells, JESS/Western blot of lysates. It counts as cell-based. The note with it: L-363, 24 h, L-363 cells, 24 h; for Dmax at 1 µM: read-out: % Degradation of MycC (L-363) 24 h, 1 μM; for Dmax at 3 µM: read-out: % Degradation of MycC (L-363) 24 h, 3 μM; for Dmax at 0.5 µM: read-out: % Degradation of MycC (L-363) 24 h, 0.5 μM; for Dmax at 6 µM: read-out: % Degradation of MycC (L-363) 24 h, 6 μM. On the procedure:
as §1, with “Cells were cultured for 24 hrs then treated with exemplary compounds at 0.1, 0.5, 1.0, 3.0 and 6.0 mM final assay concentrations plus DMSO control.” left out
as §2, §3
For SK-N-EB2 adherent cells, 5E5 cells in 1.9 mls media were plated into 6 well dishes and incubated for 24 hrs. […] Cells were scrapped off the plate, centrifuged, washed with PBS, centrifuged, then a RIPA buffer cocktail added to the cells (100 ul), centrifuged and stored at −80 for later analysis. For L363 suspension cells, 1E6 cells were plated into […] (950 ul media) and incubated for 24 hrs. […] Cells were aspirated into tubes, centrifuged, washed with PBS, centrifuged, then a RIPA buffer cocktail added to the cells (100 ul), centrifuged and stored at −80 for later analysis.
as §4
For orientation: In western blotting, separated proteins are transferred to a membrane and probed.

T2 sequence (P01106 whole entry): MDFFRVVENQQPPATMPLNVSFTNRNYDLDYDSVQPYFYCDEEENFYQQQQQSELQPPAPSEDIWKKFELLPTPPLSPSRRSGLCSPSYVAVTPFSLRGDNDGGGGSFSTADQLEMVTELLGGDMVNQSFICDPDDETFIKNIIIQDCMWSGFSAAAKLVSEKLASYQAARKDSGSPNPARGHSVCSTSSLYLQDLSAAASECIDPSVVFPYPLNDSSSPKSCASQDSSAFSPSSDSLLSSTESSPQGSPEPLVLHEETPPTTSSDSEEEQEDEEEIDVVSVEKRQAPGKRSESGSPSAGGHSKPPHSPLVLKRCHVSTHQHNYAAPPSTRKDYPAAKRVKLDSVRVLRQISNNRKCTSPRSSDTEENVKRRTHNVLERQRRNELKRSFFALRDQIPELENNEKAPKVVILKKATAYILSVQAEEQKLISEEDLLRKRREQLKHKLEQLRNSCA

With `CNC[C@@H]1CN(c2nccc(Nc3cc(C4CCCC4)[nH]n3)n2)CCO1` [Compound 118, N-(5-Cyclopentyl-1H-pyrazol-3-yl)-2-[(2R)-2-(methylaminomethyl)morpholin-4-yl]pyrimidin-4-amine], on MycN, the Dmax at 0.5 µM is less than 20%, the Dmax at 1 µM fell in the range of 20 to 49% and the Dmax at 3 µM is less than 20%. In addition, the Dmax at 6 µM at MycN (6 μM) is 80 to 100%. Also, on MycC, the Dmax at 1 µM was less than 20% and the Dmax at 3 µM is less than 20%.
On to `CNC(C)C1CCCN(c2nccc(Nc3cc(C4CC4)[nH]n3)n2)C1` (single isomer, unassigned) [Compound 162, N-(5-Cyclopropyl-1H-pyrazol-3-yl)-2-[3-[1-(methylamino)ethyl]-1-piperidyl]pyrimidin-4-amine], for which, at MycN, the Dmax at 0.5 µM was in the range of 20 to 49% and the Dmax at 1 µM is 20 to 49%. In addition, at MycN (6 μM), the Dmax at 6 µM fell in the range of 80 to 100% and the “% Degradation of MycN (SKNBE2) 24 h, 6 μM” value is “**** (degradation 80-100%)”. Further, on MycC, the Dmax at 0.5 µM fell in the range of 20 to 49%, the Dmax at 1 µM was in the range of 20 to 49% and the Dmax at 3 µM is 20 to 49%.
Consider `CNCC12CC(C1)N(c1nccc(Nc3cc(C4CCCC4)ncn3)n1)C2` [Compound 112, N-(6-Cyclopentylpyrimidin-4-yl)-2-[4-(methylaminomethyl)-2-azabicyclo[2.1.1]hexan-2-yl]pyrimidin-4-amine], for which, on MycN, the Dmax at 3 µM lay in the range of 50 to 79%. Further, the Dmax at 6 µM on MycN (6 μM) lay in the range of 80 to 100%; on MycC, 50 to 79%.
As to `CNCC12CC(C1)N(c1nc3c(c(Nc4cc(C5CCCC5)[nH]n4)n1)CCC3)C2` [Compound 183, N-(5-Cyclopentyl-1H-pyrazol-3-yl)-2-[4-(methylaminomethyl)-2-azabicyclo[2.1.1]hexan-2-yl]-6,7-dihydro-5H-cyclopenta[d]pyrimidin-4-amine], at MycN, the Dmax at 0.5 µM fell in the range of 20 to 49%, the Dmax at 1 µM is 50 to 79% and the Dmax at 3 µM was 80 to 100%. Besides, the Dmax at 6 µM on MycN (6 μM) fell in the range of 80 to 100%. For the same molecule, at MycC, the Dmax at 3 µM lay within 80 to 100% and the Dmax at 6 µM lay in the range of 80 to 100%.
Consider `CNCC12CC(C1)N(c1nccc(Nc3cc(C4CCCC4)[nH]n3)n1)C2` [Compound 31, N-(5-cyclopentyl-1H-pyrazol-3-yl)-2-[4-(methylaminomethyl)-2-azabicyclo[2.1.1]hexan-2-yl]pyrimidin-4-amine], for which, at MycN, the Dmax at 0.5 µM was in the range of 80 to 100%, the Dmax at 1 µM lay within 80 to 100% and the Dmax at 3 µM was 80 to 100%. Besides, the Dmax at 6 µM on MycN (6 μM) was 80 to 100%. For the same molecule, on MycC, the Dmax at 3 µM lay in the range of 80 to 100% and the Dmax at 6 µM was in the range of 80 to 100%.
Turning to `c1cc(Nc2cc(C3CCCC3)[nH]n2)nc(N2CC3(CCCNC3)C2)n1` [Compound 106, N-(5-Cyclopentyl-1H-pyrazol-3-yl)-2-(2,8-diazaspiro[3.5]nonan-2-yl)pyrimidin-4-amine], at MycN, the Dmax at 0.5 µM was less than 20%, the Dmax at 1 µM was less than 20% and the Dmax at 3 µM was 20 to 49%. Further, the Dmax at 6 µM on MycN (6 μM) was in the range of 20 to 49%. On MycC, the Dmax at 0.5 µM is less than 20%, the Dmax at 1 µM was less than 20%, the Dmax at 3 µM was less than 20% and the Dmax at 6 µM was less than 20%.
For `CNC[C@@H]1CCCN(c2nccc(Nc3cc(C4CC4)[nH]n3)n2)C1` [Compound 37, N-(5-cyclopropyl-1H-pyrazol-3-yl)-2-[(3S)-3-(methylaminomethyl)-1-piperidyl]pyrimidin-4-amine], on MycN, the Dmax at 0.5 µM lay within 20 to 49%, the Dmax at 1 µM was 20 to 49% and the Dmax at 3 µM fell in the range of 50 to 79%. For the same molecule, at MycN (6 μM), the Dmax at 6 µM was 80 to 100%. At MycC, the Dmax at 1 µM is less than 20% and the Dmax at 3 µM was less than 20%.
Turning to `CN1C[C@@H]2CN(c3nccc(Nc4cc(C5CC5)[nH]n4)n3)C[C@@H]21` [Compound 52, N-(5-cyclopropyl-1H-pyrazol-3-yl)-2-[(1R,5R)-6-methyl-3,6-diazabicyclo[3.2.0]heptan-3-yl]pyrimidin-4-amine], the Dmax at 6 µM at MycN (6 μM) was less than 20%.
Consider `CN(C)C[C@@H]1CCN(c2nccc(Nc3cc(C4CC4)[nH]n3)n2)C1` (stereo in doubt) [Compound 33, N-(5-Cyclopropyl-1H-pyrazol-3-yl)-2-[rac-(3S)-3-[(dimethylamino)methyl]pyrrolidin-1-yl]pyrimidin-4-amine], for which, at MycN, the Dmax at 0.5 µM was 20 to 49%, the Dmax at 1 µM was in the range of 20 to 49% and the Dmax at 3 µM lay within 50 to 79%. The Dmax at 6 µM at MycN (6 μM) is 50 to 79%.
On to `OC1CN(CC23CC(C2)N(c2nccc(Nc4cc(C5CCCC5)[nH]n4)n2)C3)C1` [Compound 70], for which the Dmax at 1 µM on MycN is less than 20%. Moreover, the Dmax at 6 µM on MycN (6 μM) fell in the range of 20 to 49%.
Consider `CNC[C@H]1CN(c2nccc(Nc3cc(C4CCCC4)[nH]n3)n2)CCO1` [Compound 190, N-(5-Cyclopentyl-1H-pyrazol-3-yl)-2-[(2S)-2-(methylaminomethyl)morpholin-4-yl]pyrimidin-4-amine], for which, on MycN, the Dmax at 0.5 µM fell in the range of 20 to 49%, the Dmax at 1 µM lay in the range of 20 to 49% and the Dmax at 3 µM fell in the range of 50 to 79%. The Dmax at 6 µM on MycN (6 μM) fell in the range of 50 to 79%.
Turning to `CNCCCNc1nccc(Nc2cc(C3CC3)[nH]n2)n1` [Compound 34, N^4-(5-cyclopropyl-1H-pyrazol-3-yl)-N^2-[3-(methylamino)propyl]pyrimidine-2,4-diamine], the Dmax at 6 µM at MycN (6 μM) was less than 20%.
On to `CS(=O)(=O)CCCNCC12CC(C1)N(c1nccc(Nc3cc(C4CCCC4)[nH]n3)n1)C2` [Compound 74, N-(5-Cyclopentyl-1H-pyrazol-3-yl)-2-[4-[(3-methylsulfonylpropylamino)methyl]-2-azabicyclo[2.1.1]hexan-2-yl]pyrimidin-4-amine], for which, at MycN, the Dmax at 0.5 µM was in the range of 20 to 49%, the Dmax at 1 µM was in the range of 20 to 49% and the Dmax at 3 µM is 50 to 79%. The Dmax at 6 µM at MycN (6 μM) was 80 to 100%.
Consider `CN1CC(C2CN(c3nccc(Nc4cc(C5CC5)[nH]n4)n3)C2)C1` [Compound 46, N-(5-Cyclopropyl-1H-pyrazol-3-yl)-2-[3-(1-methylazetidin-3-yl)azetidin-1-yl]pyrimidin-4-amine], for which the Dmax at 6 µM at MycN (6 μM) is less than 20%.

Values taken from US20250170130A1, “MODULATORS OF MYC FAMILY PROTO-ONCOGENE PROTEIN” (Nalo Therapeutics, priority 2022, published 2025).
